# From paper PMC12736141, “New Quinazolin-4(3H)-one Derivatives as Potential Antitumoral Compounds: Synthesis, In Vitro Cytotoxicity Against the HepG2 Cell Line, and In Silico VEGFR-2 Targeting-Based Studies” (Molecules, 2025)
# What was measured:
# [1] = test system: human foreskin fibroblasts (BJ); assay: MTT cytotoxicity assay on BJ cells; type: cell-based; settings: 48 h; for IC50: Homo sapiens, MTT; for IC50 / cytotoxicity on BJ cell line (in words): BJ cells
# Protocol: (§1) Compounds 5a–c were dissolved in dimethylsulfoxide (DMSO) at an initial concentration of 10 mM, which was diluted 10 times with the characteristic medium and placed on plates at final concentrations ranging from 12.5 to 150 μM. The cells were seeded on plates of 96 wells at a density of 1 × 10^4 cells per well and incubated for 48 h. The culture medium was removed, and then 100 µL MTT (3-(4,5-dimethylthiazol-2-yl)-2,5-diphenyltetrazolium bromide) was added for 1 h. After that, it was removed, and 150 µL of pure dimethylsulfoxide (DMSO) was added. The samples were read using an ELISA Reader (BioTek, Winooski, VT, USA) at 570 nm. […] All determinations were made in triplicate.
# (§2) The half-maximal inhibitory concentration (IC50) values were calculated to evaluate the potency of compounds 5a–c by fitting the investigational data with a 4-parameter logistic curve to obtain the dose-effect curves. The experimental IC50 results are expressed as mean values ± standard deviation (SD) of the three biological replicates.
# (§3) Two-way analysis of variance (ANOVA) with a post hoc Bonferroni test was used to statistically examine the relative cell viability (%), compared to the negative control (NC), which was 100%. Data were analyzed using the […] software (GraphPad Prism 8.0.2. Software, La Jolla, CA, USA). In terms of statistical analysis, the results were considered different at values of p < 0.05 or p < 0.001.
# [2] = test system: human hepatocellular carcinoma (HepG2); assay: MTT cytotoxicity assay on HepG2 cells; type: cell-based; settings: for IC50: Homo sapiens, HepG2 cells, MTT; for IC50 / Selectivity Index (SI): 48 h; for Selectivity Index (SI): SI = IC50 BJ/IC50 HepG2
# Protocol: as §1, §2, §3
# The selectivity index (SI) was used as a parameter to determine how many times more cytotoxic the investigated compounds were by exposing them to normal and cancer cells. It was calculated using the IC50 value ratio between the BJ cell line and the HepG2 cell line, both obtained from ATCC (Manassas, VA, USA). Results that are greater than 2 are considered suitable, as reported in the literature.
# [3] = In vitro lipophilicity by RP-TLC; type: physicochemical; settings: for PC2 / PC1: PCA score on RM values; for PC1: lower value = more lipophilic; for RM / Rf / mRM / RM0 / b / lipophilicity ranking (in words): RP-TLC; for mRM: arithmetic mean of RM values; for RM0: extrapolation of RM to 0% organic modifier; for b: slope of the line RM = f(c); for lipophilicity ranking (in words): within series 5a–c
# Protocol: The chromatographic performance of compounds 5a–c was investigated by reverse-phase thin-layer chromatography (RP-TLC). Standardized Silica gel 60 RP-18 F254S chromatographic plates (20 × 10 cm, Merck, Darmstadt, Germany) were used as the stationary phase, and an i-propanol–water mixture, in volumetric proportions ranging from 40% to 60% (v/v) i-propanol, was used as the mobile phase. The variance between two successive elution mixtures was 5%.
# Solutions containing 1 mg/mL of compounds 5a–c were prepared in dimethylsulfoxide (DMSO). A volume equal to 2 μL of each sample was manually applied using chromatographic capillary micropipettes, at a distance of 10 mm from the lower side of the plates and 10 mm from their lateral sides. The gap between two successive spots was 10 mm.
# The development process was carried out at room temperature using a chromatographic chamber pre-saturated for 30 min with mobile-phase vapors. The migration distance of the mobile phase was 80 mm for all concentrations used, and it was determined manually by calculating the retention factor Rf; thus, Rf = migration distance of the compound/migration distance of the mobile phase. Rf values were calculated for each tested compound at all five concentrations of the mobile phase.
# The spots were visualized under UV light at a wavelength of 254 nm.
# Starting from the Rf values determined by RP-TLC, a series of lipophilicity parameters was calculated. Therefore, based on the Bate-Smith and Westall equation, the logarithmic RM values were obtained:RM = log [1/Rf−1](2)
# Based on the linear relationship between the RM value and the concentration of the organic solvent in the mobile phase [c], using the linear regression equation and the Soczewinski–Wachtmeister model (where b = slope of the line and c = concentration of organic modifier), the values of another lipophilicity parameter, RM0, were determined by extrapolating the RM values to 0% organic modifier:RM = RM0 + b[c](3)
# The arithmetic mean of the lipophilicity parameter RM values, corresponding to a series of concentrations of the organic modifier in the mobile phase, was determined. Therefore, the mRM lipophilicity parameter was obtained.
# Applying principal component analysis (PCA, XL-STAT) to the lipophilicity parameter RM, new lipophilicity parameters represented by the principal components (PCs) were obtained.
# Starting from the experimentally determined Rf values, the RM logarithmic values were calculated. Consequently, the presence of minor errors in determining the Rf values can generate errors in calculating the RM values. By analyzing the principal components, the errors in estimating the RM0 values are eliminated through extrapolation, thereby providing more precise results.
# [4] = In vitro lipophilicity by RP-HPLC; type: physicochemical; settings: logarithm of the capacity factor
# Protocol: The chromatographic behavior of compounds 5a–c was also examined by high-performance liquid chromatography coupled with mass spectrometry (HPLC-MS). The analyses were conducted using an Agilent 1100 series HPLC system (binary pump, autosampler, thermostat, UV detector, Agilent Technologies, USA) coupled to a Bruker Ion Trap SL system (Bruker Daltonics GmbH). Chromatographic separation was completed using a Zorbax SB-C18 column (50 mm × 2.1 mm i.d., 3.5 μm, Agilent Technologies). The mobile phase consisted of a mixture of water with 0.1% (v/v) acetic acid and acetonitrile. The elution gradient started at 15% acetonitrile and increased to 95% within 5 min. The flow rate was 0.6 mL/min, and the thermostat was set at 45 °C. UV detection was performed at 242 nm. Based on the retention times obtained, the capacity factor k was calculated using formula […], where tR = retention time of the compound and t0 = retention time of the solvent:k = (tR − t0)/t0,(4)
# The logarithm of the capacity factor (log k) was used to estimate the lipophilicity of the compounds [71]. The RP-HPLC method has multiple advantages, including low sample requirements, good accuracy of determinations, fast analysis, and high reproducibility.
# [5] = Isopropanol–Water 40:60 (v:v %)
# [6] = Isopropanol–Water 45:55 (v:v %)
# [7] = Isopropanol–Water 50:50 (v:v %)
# [8] = Isopropanol–Water 55:45 (v:v %)
# [9] = Isopropanol–Water 60:40 (v:v %)
Compound,IC50 [1],IC50 [2],cytotoxicity on BJ cell line (in words) [1],PC2 [3],PC1 [3],"RM [3, 5]","Rf [3, 5]","RM [3, 6]","Rf [3, 6]","RM [3, 7]","Rf [3, 7]","RM [3, 8]","Rf [3, 8]","RM [3, 9]","Rf [3, 9]",mRM [3],RM0 [3],b [3],log k [4],Selectivity Index (SI) [2],other results
"CNC(=O)c1cc(Oc2ccc(NC(=O)Nc3ccc(Cl)c(C(F)(F)F)c3)cc2)ccn1 [Sorafenib, reference compound]",5.11 ± 0.16 µM,4.87 ± 0.19 µM,–,–,–,–,–,–,–,–,–,–,–,–,–,–,–,–,–,–,"cell viability level ([2]; HepG2, 48 h, concentrations exceeding 5 µM): below 50%"
"C=CCn1c(SCC(=O)c2ccc(O)c(C(N)=O)c2)nc2ccccc2c1=O [5a, 5-(2-((3-allyl-4-oxo-3,4-dihydroquinazolin-2-yl)thio)acetyl)-2-hydroxybenzamide]",> 100 µM,> 50 µM,less cytotoxic or non-cytotoxic,−0.09,0.64,0.12,0.43,0.03,0.48,−0.08,0.55,−0.28,0.66,−0.60,0.8,−0.16,−0.03,1.60,0.93,–,–
"NC(=O)c1cc(C(=O)CSc2nc3ccccc3c(=O)n2Cc2ccccc2)ccc1O [5b, 5-(2-((3-benzyl-4-oxo-3,4-dihydroquinazolin-2-yl)thio)acetyl)-2-hydroxybenzamide]",26.6 ± 1.07 µM,24.87 ± 0.19 µM,moderate cytotoxicity,0.41,−2.01,0.36,0.30,0.23,0.37,0.06,0.46,−0.14,0.58,−0.41,0.72,0.02,−0.03,1.95,0.99,1.06,"reduction of viability values ([1]; BJ, concentrations higher than 50 and 100 µM): more than 35%; decrease of cell viability ([1]; BJ, concentrations over 25 µM): more than 50%; lipophilicity ranking (in words) [3]: The most lipophilic compound"
"CCn1c(SCC(=O)c2ccc(O)c(C(N)=O)c2)nc2ccccc2c1=O [5c, 5-(2-((3-ethyl-4-oxo-3,4-dihydroquinazolin-2-yl)thio)acetyl)-2-hydroxybenzamide]",34.5 ± 1.09 µM,25.46 ± 0.2 µM,moderate cytotoxicity,−0.31,1.37,0.05,0.47,−0.01,0.51,−0.14,0.58,−0.32,0.68,−0.62,0.81,−0.21,−0.03,1.46,0.91,1.35,"relative cell viability result (in words) ([1]; BJ, over 37.5 µM): significantly unfavorable; reduction in cell viability (in words) ([2]; HepG2, 48 h, over 37.5 µM): important reduction in cell viability; lipophilicity ranking (in words) [3]: The least lipophilic compound"
